# Results reported in PubChem BioAssay (NCI).
#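 Dose response: 5 concentrations. Exposure: 48 h. Format: 96-well plates. Endpoint: linear interpolation; highest concentration if not reached. TGI is the concentration that stops growth completely.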
# Legend:
# Experiment in all cases: NCI tumour cell line growth inhibition, 48 h
# [1] = system: KM20L2 colon
# [2] = system: CAKI-1 renal
# [3] = system: DMS 273 small cell lung
# [4] = system: DLD-1 colon
# [5] = system: SK-MEL-28 melanoma
# [6] = system: SF-295 CNS
# [7] = system: HCC-2998 colon
# [8] = system: SNB-78 CNS
# [9] = system: DMS 114 small cell lung
# [10] = system: OVCAR-3 ovarian
# [11] = system: MDA-N
# [12] = system: MCF7 breast
# [13] = system: BT-549 breast
Structure (SMILES),TGI [1] [µM],TGI [2] [µM],TGI [3] [µM],TGI [4] [µM],TGI [5] [µM],TGI [6] [µM],TGI [7] [µM],TGI [8] [µM],TGI [9] [µM],TGI [10] [µM],TGI [11] [µM],TGI [12] [µM],TGI [13] [µM]
Cc1ccc(CC(C)N)cc1 (centres undefined),> 100,> 100,> 100,> 100,> 100,> 100,> 100,> 100,> 100,> 100,–,–,–
N#C/C(=C\c1c[nH]c2ccccc12)C(=O)c1ccc(O)c(O)c1,> 100,> 100,> 100,> 100,> 100,67,> 100,–,–,17.2,> 100,> 100,65.1
COc1cc(/C=C(/C#N)C(N)=O)ccc1O,> 100,> 100,> 100,> 100,> 100,> 100,> 82.1,> 100,> 100,> 100,–,> 100,–
CC(NC(C)(C)C)C(=O)c1cccc(Cl)c1 (centres undefined),> 100,> 100,> 100,> 100,> 100,> 100,> 100,–,> 100,> 100,–,–,–
CC(C)[C@@H]1ON1C(C)c1ccccc1 (some centres undefined),–,34.7,–,–,> 100,> 100,> 100,–,–,> 100,> 100,> 100,> 100
OC(c1ccc(-c2ccccc2)cc1)C(F)(F)c1nc2ccccc2o1 (centres undefined),–,61.2,–,–,> 100,> 100,> 100,–,–,> 100,> 100,> 100,> 100
CCOC(=O)CSc1nnc(C(Sc2nc(-c3ccccc3)c(-c3ccccc3)[nH]2)C(C)C)n1-c1ccccc1 (centres undefined),> 10,–,> 10,> 10,29,> 10,43.5,> 10,> 10,> 10,> 100,> 100,52.9
CCC(c1c[nH]c2ccc(Br)cc12)c1c[nH]c2ccc(Br)cc12,–,6.58,–,–,25.4,18.8,5.73,–,–,14.2,16,15.5,23.3
Brc1c(C#CCC2CCCCC2)ccc(C#CCC2CCCCC2)c1Br,–,> 100,–,–,> 100,> 100,> 100,–,–,> 100,> 100,> 100,> 100
COc1ccc(N=C2C(=Nc3ccc(OC)cc3)N(c3ccccc3)C(=S)N2N=C=C2Sc3ccccc3N2C)cc1,–,> 100,–,–,> 100,> 100,> 100,–,–,> 100,> 100,> 100,> 100
Nc1ccc(CCN2CCN(CCCc3ccccc3)CC2)cc1,–,> 100,–,–,> 100,> 100,> 100,–,–,> 100,> 100,> 100,> 100
COC(=O)C1=C(OC(=O)c2ccccc2)C(C(=O)OC)[C@]2(O)[C@@H](C(=O)OC)[C@H]1C[C@@H](c1ccccc1)[C@@H]2C(=O)OC (some centres undefined),–,> 100,–,–,76.3,36.7,25,–,–,57.4,3.95,15.7,75.6
CC1(O)OC(=O)C2=C1CCC1C2CCC2(C)C(O)CCC12 (centres undefined),–,> 100,–,–,> 100,> 100,> 100,–,–,> 100,> 100,> 100,> 100
CC(C)(C)OC(=O)NCCC1CN(C(=O)c2ccccc2)c2ccccc21 (centres undefined),–,> 100,–,–,91.2,> 100,> 100,–,–,65.3,48.4,85.5,66.5
Nc1ccc(C(=O)NN2C(=O)C(Cl)C2c2ccccc2)cc1 (centres undefined),> 100,> 100,> 100,> 100,> 100,> 100,> 100,> 100,> 100,> 100,–,–,–
CCN(CC)Cc1sc2nc3ccccc3n2c1-c1ccc(OC)cc1,–,> 100,–,–,> 100,> 100,> 100,–,–,> 100,7.02,> 100,> 100
COc1ccc(CSc2ccccc2Cn2cccc2)cc1OC,–,> 100,–,–,> 100,> 100,> 100,–,–,> 100,> 100,> 100,> 100
CC[C@@H](/C=C\CCC(=O)C[C@H](O)CCC=C(C)C)O[Si](C(C)C)(C(C)C)C(C)C,–,> 100,–,–,> 100,> 100,> 100,–,–,> 100,> 100,> 100,> 100
